From patent publication US5998366A, “Method for ameliorating glutamic acid decarboxylase associated autoimmune disorders” (The Regents of the University of California, priority 1997, dated 1999)

Key:
Assay type in all cases: in vivo
[1] = system: spleen cells of treated female NOD mice; assay: Proliferative splenic T-cell responses to antigens after tolerance induction
Description: NOD (Taconic farms) and BALB/c mice (Jackson Laboratories) were kept under specific pathogen free conditions. The mice were sacrificed at the ages indicated and the spleen cells were tested directly ex vivo for their proliferative recall response to antigen. Single cell suspensions of spleen cells were plated at 1×10^6 cells per well in 96 well microtiter plates in 200 μl serum free HL-1 medium (Ventrex) that was supplemented with 2 mM glutamine with or without 10 μg/ml antigen (or 7 μM peptide) in triplicate cultures. During the last 16 h of the 72 h culture period, 1 μCi[^3 H]-thymidine was added per well. Incorporation of label was measured by liquid scintillation counting.
1. In these experiments female NOD mice were intravenously injected at 3 weeks of age with 50 μg GAD, μ-galactosidase, mycobacterial hsp65 (m-hsp) or 0.1 μg of the immunodominant hsp peptide (hsp-p), in PBS. At 12 weeks of age, mice were examined for insulitis and autoantigen reactive T-cells. At this age both indications are established in untreated NOD mice. Pancreatic tissue sections were stained by immunoperoxidase techniques for insulin and were counterstained with hematoxylin. Insulitis was scored in a blinded manner by examining 54 to 87 islets on 5 interrupted tissue sections from each pancreas. […] Data in Table 8 are expressed as the average [^3 H]-thymidine label (cpm) incorporated in triplicate cultures. […]

female NOD mice = assay: GAD immunization of 8 week old NOD mice, onset of IDDM
Description: An IPTG inducible T7 expression vector was used to express both human GAD65 and E. coli b galactosidase (β-gal). In IPTG induced recombinant E. coli, GAD and β-gal constitute about 10-20% of the total bacterial protein. However, almost all of the GAD was in inclusion bodies, which could be isolated and extensively washed to obtain material that is about 80% GAD. We then did affinity purifications of GAD and β-gal on the basis of a hexa-histidine "tag" which was attached to GAD during the subcloning process. These extra histidine residues allow the rapid affinity purification (Novagen) of GAD by metal affinity chromatography (Hochuli, et al., Bio Technology, 6:1321-1325, 1988). The inclusion body material is solubilized in 6M guanidine hydrochloride (GHCL), 10 mm β-mercaptoethanol and 1% triton X-100. After binding to the column, the column was extensively washed with GHCL and 8M urea in phosphate buffers. Only the central peak GAD fraction was utilized for subsequent studies. Human GAD65 shares 96% amino acid sequence identity with murine GAD65, with most of the amino acid differences being conservative substitutions.
Breeder mice were purchased from Taconic Farms and housed under specific pathogen-free conditions. Only female NOD mice were used in this study. The average age of IDDM onset in unrelated females in the colony was 22 weeks. Insulitis is generally observed beginning at 4 weeks of age. T cell responses to GAD, HSP, CPH were found by 6 weeks in age. The incidence of IDDM in female mice is 70-90% by one year of age.
At 8 weeks of age, 25 ug GAD or control β-gal. was injected intraperftoneally (ip) in 100 ul of incomplete Freunds adjuvant (IFA). Because there may be a requirement for continual antigen presentation (Ramsdell, et al., Science, 257:1130-1133, 1992) mice were treated again every 6 weeks. Urine glucose levels were monitored twice weekly. After observing above normal glucose in urea, blood glucose levels were monitored twice weekly. Two consecutive blood glucose level readings of […] was considered as IDDM onset, after which the mice were sacrificed and spleen cells were tested as described above in Example 6 for evidence of spleen cell proliferation.

[2] = system: spleen cells of treated female NOD mice; assay: Proliferative splenic T-cell responses to antigens after tolerance induction; details: Table 8A: i.v. at 3 weeks, tested at 12 weeks

In the case of “GAD: human GAD65 purified from recombinant bacteria on the basis of a hexahistidine tag”, the “share of treated mice with no T-cell reactivity to GAD (complete tolerization) or to other βCAs” value ([1]; i.v. at 3 weeks, tested at 12 weeks) is reported as “Seventy five percent”, the “weak residual GAD reactivity of the mice not completely tolerized” value ([1]; twenty five percent of the GAD-treated mice) is reported as “about 3 SI” and the “age until which 8 of the immunized mice showed no signs of hyperglycemia” value (female NOD mice; 25 ug ip in IFA at 8 weeks, again every 6 weeks) is reported as 36 weeks. For the same substance, the “treated mice remaining disease free at 52 weeks of age” value (female NOD mice; 25 ug ip in IFA at 8 weeks, again every 6 weeks, 10 mice per group) was “Four”, the “significance of the delay or prevention of diabetes” value (female NOD mice; versus β-gal immunized mice) was less than 0.02 and the “Spleen Cell Proliferation (SI ± SEM) CPH” value ([2]; recall antigen CPH) was 1.1 ± 0.02 SI. The “Spleen Cell Proliferation (SI ± SEM) GAD” value ([2]; recall antigen GAD) was 1.6 ± 0.3 SI, the “Spleen Cell Proliferation (SI ± SEM) GAD Peptides #17” value ([2]; recall antigen GAD peptide #17) was 1.0 ± 0.05 SI and the “Spleen Cell Proliferation (SI ± SEM) GAD Peptides #34” value ([2]; recall antigen GAD peptide #34) was 1.2 ± 0.1 SI. The “Spleen Cell Proliferation (SI ± SEM) GAD Peptides #35” value ([2]; recall antigen GAD peptide #35) was 1.0 ± 0.1 SI, the “Spleen Cell Proliferation (SI ± SEM) hsp Peptide” value ([2]; recall antigen hsp peptide) was 1.2 ± 0.1 SI and the “Spleen Cell Proliferation (SI ± SEM) β-Gal” value ([2]; recall antigen β-Gal) was 1.1 ± 0.03 SI.
